Measured values: ChEMBL document CHEMBL5726955, “Substituted boronic acids and boronate esters as immunoproteasome inhibitors” (2019)

Molecular target: T1, Proteasome Macropain subunit MB1 (Homo sapiens, UniProt P28074)
T1 sequence (P28074 whole entry): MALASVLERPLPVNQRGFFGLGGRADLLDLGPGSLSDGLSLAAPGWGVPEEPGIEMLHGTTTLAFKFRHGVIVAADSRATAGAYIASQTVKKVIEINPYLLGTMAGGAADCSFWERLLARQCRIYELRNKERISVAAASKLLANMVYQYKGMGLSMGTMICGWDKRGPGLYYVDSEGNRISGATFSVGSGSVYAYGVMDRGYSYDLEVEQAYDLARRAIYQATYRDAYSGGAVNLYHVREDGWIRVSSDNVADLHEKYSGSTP
Assay: Determination of Beta5 Activity: Measurement of Beta5 inhibition is performed in 384 well format based on fluorescence intensity assay.Purified human constitutive proteasome (1.25 nM) and serial diluted compounds in DMSO (range of concentrations from 30 μM to […]) or controls are incubated for 20 minutes at 25° C. in assay buffer containing 50 mM Tris pH 7.4, 0.03% SDS, 1 mM EDTA and 1% DMSO. The reaction is initiated by the addition of the fluorogenic peptide substrate, Suc-LLVY-AMC (Bachem 1-1395), at a concentration of 40 μM. After 60 minutes of incubation at 37° C., fluorescence intensity is measured at λex=350 nm and λem=450 nm with a fluorescence reader (Perkin Elmer Envision reader or equivalent).

SMILES | IC50
Cc1ccc(OCCC(=O)N[C@@H](Cc2coc3ccccc23)B(O)O)cc1 | < 0.05 µM
CCO[C@@H](C(=O)N[C@@H](Cc1coc2ccccc12)B(O)O)c1ccccc1 | > 5 µM
